Results: the CheMixHub ionic liquid set

Assay: xn = mol fraction of the nth substance listed
Conditions: 100 kPa

CCCC[n+]1ccn(C)c1.[Br-] + O=C1O[C@H]([C@@H](O)CO)C(O)=C1O + O
viscosity [mPa·s]
Conditions	293.15 K	298.15 K	303.15 K	308.15 K	313.15 K	318.15 K
x2 = 0, x1 = 0.0009002	1.033	0.918	0.823	0.753	0.676	0.618
x2 = 0, x1 = 0.001799	1.057	0.938	0.84	0.758	0.689	0.631
x2 = 0, x1 = 0.002696	1.069	1	0.905	0.795	0.749	0.68
x2 = 0.0003657, x1 = 0.0008999	1.04	0.925	0.831	0.761	0.684	0.626
x2 = 0.0003693, x1 = 0.001798	1.064	0.945	0.847	0.765	0.696	0.638
x2 = 0.000373, x1 = 0.002695	1.073	1.005	0.912	0.802	0.756	0.687
x2 = 0.0007293, x1 = 0.0008995	1.048	0.933	0.839	0.769	0.691	0.633
x2 = 0.0007366, x1 = 0.001797	1.071	0.952	0.854	0.772	0.703	0.645
x2 = 0.0007401, x1 = 0.002694	1.08	1.013	0.919	0.808	0.763	0.695
x2 = 0.001093, x1 = 0.0008992	1.055	0.94	0.845	0.775	0.697	0.639
x2 = 0.0011, x1 = 0.001797	1.081	0.961	0.862	0.78	0.71	0.651
x2 = 0.001111, x1 = 0.002693	1.088	1.02	0.927	0.816	0.77	0.701
x2 = 0.001456, x1 = 0.0008989	1.063	0.947	0.851	0.781	0.703	0.644
x2 = 0.001467, x1 = 0.001796	1.09	0.969	0.869	0.786	0.716	0.657
x2 = 0.001485, x1 = 0.002692	1.097	1.029	0.935	0.823	0.777	0.708
x2 = 0.001819, x1 = 0.0008986	1.071	0.954	0.859	0.788	0.71	0.65
x2 = 0.001833, x1 = 0.001795	1.097	0.976	0.876	0.793	0.723	0.664
x2 = 0.001851, x1 = 0.002691	1.106	1.038	0.941	0.83	0.785	0.715
x2 = 0.002183, x1 = 0.0008982	1.079	0.961	0.865	0.795	0.717	0.657
x2 = 0.002201, x1 = 0.001795	1.104	0.982	0.882	0.798	0.728	0.669
x2 = 0.002221, x1 = 0.00269	1.114	1.045	0.948	0.837	0.792	0.722
